Data reported in PMC8752827, “Towards a generic prototyping approach for therapeutically-relevant peptides and proteins in a cell-free translation system” (Nature Communications, 2022).
Entries after “also recorded” stand apart in the source; their conditions may differ. Where a SMILES comes first, the peptide text is derived from it. Bridges are numbered along the chain shown (N, C = ends). Where no end group is shown, it is not given here.

How the values were obtained:
[1] = tested on: Drosophila melanogaster fruit flies; assay: Insecticidal activity assay (microinjection, LD50); assay type: in vivo; details: microinjection of 50 nL into female Drosophila melanogaster, lethal effects at 24 h; thrombin-cleaved cell-free Dc1a
Procedure: The insecticidal activity of the Dc1a and its cell-free produced analog was tested by microinjection in female Drosophila melanogaster fruit flies aged 3–4 days with an average weight of 0.8–0.9 mg according to the previously described method. Briefly, the C-terminally unprocessed Dc1a (Dc1a-GTGSGG-[…]) was dissolved in water for injection, and water was used as the respective negative control. The thrombin-cleaved Dc1a sample (Dc1a-GTGSGG-R) contained thrombin and the respective amount of thrombin was added to the control sample. The injection volume was 50 nL and three repeats of seven doses (each in n = 8 fruit flies) were used for each Dc1a analog. Female Drosophila were cooled on ice before injection. […] The number of control flies affected at the respective post-injection time was subtracted from the number of affected flies.

[2] = target: T1, Trypsin (Bos taurus, UniProt P00760); assay: Trypsin-inhibitory assay; assay type: biochemical; details: for HillSlope / LogEC50: trypsin inhibition curve, nonlinear fit, variable slope, best-fit value
T1 construct: gene PRSS1
T1 sequence (P00760 24-246): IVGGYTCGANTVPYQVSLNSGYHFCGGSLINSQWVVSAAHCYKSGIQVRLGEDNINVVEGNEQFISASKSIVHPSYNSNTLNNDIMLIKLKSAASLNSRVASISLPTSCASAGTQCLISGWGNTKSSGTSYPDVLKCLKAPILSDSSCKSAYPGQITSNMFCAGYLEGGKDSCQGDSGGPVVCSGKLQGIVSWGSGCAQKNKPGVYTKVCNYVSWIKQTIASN
Procedure: Trypsin was freshly prepared at 400 pM in the assay buffer containing 0.1 M NaCl, 10 mM CaCl2, 0.005% Triton X-100, 0.1 M Tris-HCl pH 8.0. […] After incubation residual trypsin activity was measured by adding the quenched fluorescent peptide substrate Boc-Q-A-R- 7-amido-4-methyl-coumarin to a final concentration of 10 μM. The fluorescence increase upon the release of 7-amido-4-methyl-coumarin was monitored on Infinite M1000 Pro plate reader (Tecan) every 30 s using excitation and emission wavelengths of 360 and 460 nm, respectively.

[3] = tested on: peptidyl-prolyl isomerase; details: 10 μM inhibitor in Ec CFS translation reaction; Supplementary Fig. 19
Procedure: For details, refer to a procedure overview in the Supplementary Methods. Briefly, E. coli S30 extract was prepared as described by Schwarz et al.[68] with minor modifications. Briefly, cells were cultivated in 5–10 L of filter-sterilized TBGG media (tryptone 12 g/L, yeast extract 24 g/L, glycerol 8 mL/L, glucose 1 g/L, KH2PO4 2.31 g/L, K2HPO4 2.54 g/L) to OD 3.5, pre-chilled with 5 × 200 or 10 × 200 mL of –80 °C pre-frozen packs of LB broth and spun at 2.5 kg for 15 min. The cell pellet from the final wash was resuspended in 200 % (vol/wt) of S30B buffer and disrupted using fluidic disruption (Constant Systems, continuous flow mode) at 20 kpsi at 4 °C. Cell homogenate was cleared by two consecutive 30 min centrifugation steps at 30 kg at 4 °C while collecting the top ¾ of supernatant every time. The final supernatant was adjusted to 0.4 M with 5 M NaCl followed by 45 min incubation at 42 °C in a water bath. […]
Fluorescence DHFR activity assay was performed by monitoring the change in NADPH fluorescence (Ex 340 nm, […]) upon its conversion to NADP^+ in 200 µL of buffer containing 20 mM Tris-HCl pH 7.5, 100 mM NaCl, 1 mM Mg(OAc)2, 0.012% Tween 20, 2.5 mM DTT in a black 96-well plate (Corning). […] Fluorescence changes were recorded for 4 h. […]

In the case of “Dc1a-GTGSGG-R (bicyclic or more) [cell-free produced Dc1a harboring GTGSGGR on its C-terminus after thrombin cleavage]”, the “insecticidal activity, in words” value [1] is reported as “showed the expected biological activity; also recorded: insecticidal activity similar to the synthetic wild-type toxin”.

In the case of `CC[C@H](C)[C@@H]1NC(=O)[C@@H]2CCCN2C(=O)[C@@H]2CCCN2C(=O)[C@H]([C@@H](C)CC)NC(=O)[C@H](CO)NC(=O)[C@H](CCCCN)NC(=O)[C@H]([C@@H](C)O)NC(=O)[C@@H]2CSSC[C@H](NC1=O)C(=O)N[C@@H](Cc1ccccc1)C(=O)N1CCC[C@H]1C(=O)N[C@@H](CC(=O)O)C(=O)NCC(=O)N[C@@H](CCCNC(=N)N)C(=O)N2` [Chem_cyc-SFTI], the HillSlope [2] is reported as -1.291 and the LogEC50 [2] is reported as 2.234 log10 [SFTI], pM.

For “GGVCPKILKKCRRDSDCPGACICRGNGYCGSGSDGLPRGSIDTWV (disulfide 4-21, 11-23, 17-29) [wtMCoTI-RGS]”, the EC50 [2] was 0.609 nM and the “trypsin-inhibitory activity / Ki for trypsin, compared in words” value ([2]; trypsin-inhibitory assay, comparison with the named counterpart) was “almost fourfold higher Ki for trypsin”.

For `CC[C@H](C)[C@H](NC(=O)[C@@H]1CCCN1C(=O)[C@@H]1CCCN1C(=O)[C@@H](NC(=O)[C@@H](N)CO)[C@@H](C)CC)C(=O)N[C@H]1CSSC[C@@H](C(=O)N[C@H](C(=O)N[C@@H](CCCCN)C(=O)O)[C@@H](C)O)NC(=O)[C@H](CCC(N)=O)NC(=O)CNC(=O)[C@H](CC(=O)O)NC(=O)[C@@H]2CCCN2C(=O)[C@H](Cc2ccccc2)NC1=O` [Cell-free_oMut-SFTI] (H-SIPPICFPDGQCTK-OH; disulfide 6-12; C-terminus assumed), the HillSlope [2] was -1.405 and the LogEC50 [2] was 2.696 log10 [SFTI], pM.

`CO[C@H]1C[C@@H]2CC[C@@H](C)[C@@](O)(O2)C(=O)C(=O)N2CCCC[C@H]2C(=O)O[C@H]([C@H](C)C[C@@H]2CC[C@@H](O)[C@H](OC)C2)CC(=O)[C@H](C)/C=C(\C)[C@@H](O)[C@@H](OC)C(=O)[C@H](C)C[C@H](C)/C=C/C=C/C=C/1C` [rapamycin, Rapamycin] was tested, and the “effect on the gain of hDHFR activity by exposure of GFP-hDHFR to lysate (post-translational capture)” value [3] was “eliminated the beneficial effect of protein exposure to lysate in Ec CFS”.

“ILKKCRRDSDCPGACICRGNGYCGSGSDGGVCPKGAGRGSIDTWV (disulfide 5-17, 11-23, 15-32) [prmMcoTI-RGS]” was tested, and the EC50 [2] was 0.167 nM.
